Source: patent publication US8889743B2 (priority 2007, dated 2014)

Legend:
[1] = tested on: Ebola virus pseudotyped VSV particles; assay type: cell-based
[2] = tested on: live Ebola virus (Zaire strain); assay type: cell-based; settings: 10 days
[3] = tested on: Ebola virus GP pseudotype; assay type: cell-based
[4] = tested on: Venezuelan equine encephalitis virus (VEEV) pseudotyped VSV particles; assay type: cell-based
[5] = tested on: VSV GP pseudotype; assay type: cell-based, Vesicular stomatitis virus
[6] = tested on: EBOV pseudotyped lentivirus; assay: microbe, parasite or virus in culture; assay type: cell-based, EBOV Zaire strain
[7] = tested on: wild type Ebola virus, Zaire strain; assay type: cell-based; settings: 7 days
[8] = tested on: retrovirus pseudotypes bearing Ebola virus env; assay type: cell-based
[9] = tested on: retrovirus pseudotypes bearing eMLV (Fr-MLV) env; assay type: cell-based, ecotropic murine leukemia virus

Methoxyverapamil was tested, and the “Ebola virus-like particle infection/entry, calmodulin inhibitors and L-channel blocking drugs” value [1] was “highly effective” and the “infection of live Ebola Zaire virus (plaque numbers normalized to DMSO)” value [2] was “inhibition of infection”.

For `Cl.N` [ammonium chloride], the “entry of Ebola virus GP pseudotype (luciferase activity), assay validation” value [3] was “sensitive”.

With `CN1CCN(CCCN2c3ccccc3Sc3ccc(C(F)(F)F)cc32)CC1` [Trifluorperazine] the “Ebola virus-like particle infection/entry, calmodulin inhibitors and L-channel blocking drugs” value [1] was “inhibited” and the “Venezuelan equine encephalitis virus-like particle infection” value [4] was “not”.

In the case of `NCCCCCCNS(=O)(=O)c1cccc2c(Cl)cccc12` [W7], the “Ebola virus-like particle infection/entry, calmodulin inhibitors and L-channel blocking drugs” value [1] is reported as “inhibited” and the “Venezuelan equine encephalitis virus-like particle infection” value [4] is reported as “not”.

In the case of `CCN(CC)CCCC(C)Nc1nc(C)cc(Nc2ccc3nc(C)cc(N)c3c2)n1` (racemic) [Rac1 inhibitor], the “entry of Ebola virus GP pseudotype (luciferase activity)” value [3] is reported as “inhibits Ebola virus entry” and the “entry of VSV GP pseudotype (luciferase activity)” value [5] is reported as “unaffected”.

`COCCOC(=O)C1=C(C)NC(C)=C(C(=O)OC(C)C)C1c1cccc([N+](=O)[O-])c1` (stereo not shown) [Nimodopine] was tested, and the “Ebola virus-like particle infection/entry, calmodulin inhibitors and L-channel blocking drugs” value [1] was “effective”.

`CO/C1=C\C(C)=C\[C@@H](C)[C@@H](O)[C@@H](C)C/C(C)=C/C=C/[C@H](OC)[C@@H]([C@@H](C)[C@@H](O)[C@H](C)[C@@]2(O)C[C@@H](O)[C@H](C)[C@@H](C(C)C)O2)OC1=O` [bafilomycin A1] was tested, and the “entry of Ebola virus GP pseudotype (luciferase activity), assay validation” value [3] was “sensitive”.

In the case of `N#CC(=C(/N)Sc1ccccc1N)/C(C#N)=C(\N)Sc1ccccc1N` [U0126], the “entry of Ebola virus GP pseudotype (luciferase activity)” value [3] is reported as “not”.

`CC(COc1ccccc1)N(CCCl)Cc1ccccc1` (stereo not shown) [Phenoxybenzamine] was tested, and the “Ebola virus-like particle infection/entry, calmodulin inhibitors and L-channel blocking drugs” value [1] was “inhibited” and the “Venezuelan equine encephalitis virus-like particle infection” value [4] was “not”.

`O=c1cc(N2CCOCC2)oc2c(-c3ccccc3)cccc12` [LY294002] showed an IC50 ([6]; Zaire ebolavirus, HEK293, read-out: IC50 value for infection of EBOV pseudotyped lentivirus) of 6.5 ± 1.1 µM.

In the case of `COc1ccc(CCN(C)CCCC(C#N)(c2ccc(OC)c(OC)c2)C(C)C)cc1OC` (stereo not shown) [Verapamil], the “Ebola virus-like particle infection/entry, calmodulin inhibitors and L-channel blocking drugs” value [1] is reported as “highly effective” and the “Ebola virus induced cytopathic effect” value [7] is reported as “reduced or significantly prevented”.

In the case of `COc1ccc([C@@H]2Sc3ccccc3N(CCN(C)C)C(=O)[C@@H]2OC(C)=O)cc1` [Diltiazem], the “infection by virus-like particles bearing Ebola virus env (GFP-expressing cells)” value [1] is reported as “potent and specific blockers”.

In the case of `COc1ccc2cc1Oc1ccc(cc1)C[C@H]1c3cc(c(OC)cc3CCN1C)Oc1c(OC)c(OC)cc3c1[C@H](C2)N(C)CC3` [Tetrandine], the “infection by virus-like particles bearing Ebola virus env (GFP-expressing cells)” value [1] is reported as “potent and specific blockers”.

For `COc1ccc(S(=O)(=O)Nc2ccccc2CN(C)C/C=C/c2ccc(Cl)cc2)cc1` [KN-92], the “reduction in infection by the pseudotyped virus” value [6] was roughly 50% and the “infection of the VSV core EBOV pseudotyped virus” value [1] was “not”.

For `COc1ccc(S(=O)(=O)N(CCO)c2ccccc2CN(C)C/C=C/c2ccc(Cl)cc2)cc1` [KN-93], the “infection by retrovirus pseudotype bearing Ebola virus env (luciferase activity)” value [8] was “strong effect”, the “infection by retrovirus pseudotype bearing eMLV env (luciferase activity)” value [9] was “blocking only the Ebola infection” and the “infection of the VSV core EBOV pseudotyped virus” value [1] was “significantly impacted”. For the same compound, the “infection with Ebola virus pseudotyped VSV particles” value ([1]; 10 μM) was “specifically blocked infection”.
